How the values were obtained:
Type in all cases: cell-based, human
M1619 melanoma cells = assay: MTT proliferation assay, M1619 melanoma; conditions: for Proliferation of M1619 melanoma cells (MTT, A540): 10% FBS, agents added at plating, 48 hours (ebselen 72 hours)
Protocol: Measurement of Proliferation in Cell Cultures. Proliferation of cultured cells was quantitated using a previously reported calorimetric method based upon metabolic reduction of the soluble yellow tetrazolium dye 3-[4,5-dimethylthiazol]-2yl-2,5-diphenyl tetrazolium bromide (MTT) to its insoluble purple formazan by the action of mitochondrial succinyl dehydrogenase. […] This assay empirically distinguishes between dead and living cells. For proliferation studies, cells were seeded into 24-well uncoated plastic plates (Costar) at 15,000-50,000 cells per well and cultured with respective media and mitogens. After 24-96 hours, medium was removed, cells were washed twice with 1 ml of sterile Dulbecco's modified phosphate buffered saline without Ca^2+ or Mg^2+ (DPBS), the medium was replaced with 1 ml/well fresh medium containing 100 μg/ml MTT, and plates were incubated an additional hour. MTT-containing medium was removed, 0.5 ml dimethylsulfoxide (DMSO) was added to each well, and the absorbance of the solubilized purple formazan dye was measured at 540 nm. A total of 4-6 wells was studied at each treatment condition. Preliminary studies were performed with 50-200 μg/ml MTT incubated for 15 min to 3 hours to determine the optimum concentration and incubation time at which the rate of conversion was linear and proportional to the number of cells present.
(§1) Cell Culture Treatments. The effect of antioxidant treatments on proliferation of malignant cell lines was studied in cultures stimulated with 10% FBS. Cell numbers were quantitated by the MTT assay 24-72 hours later. In some experiments, antioxidants were added immediately after cells were plated. In other experiments, cells were plated and allowed to grow for 24 hours before fresh media with antioxidants was added, and cell numbers were studied by the MTT assay 48 hours later.
A. M1619 melanoma cells stimulated with 10% fetal bovine serum (FBS) were plated at a density of 50,000 cells per well and antioxidants were added to wells at the indicated concentrations (mM or U/ml). After 48 hours, proliferation was quantitated by assessing the cell number-dependent reduction of the soluble yellow tetrazolium dye 3-[4,5-dimethylthiazol]-2yl-2,5-diphenyl tetrazolium bromide (MTT) to its insoluble formazan, measured as the absorbance at 540 nm (A540). The antioxidants tested included no antioxidant (control, i.e., FBS alone), 1000 U/ml SOD, 20 mM NAC, 500 U/ml, 1000 U/ml, and 3000 U/ml of catalase, and boiled […] catalase.
B. In a separate experiment, 2 μl/well of DMSO (served as control), 5 μM, 10 μM, and 25 μM Ebselen were tested on M1619 melanoma cells as described above, except that the cells were cultured for 72 hours before proliferation was measured.
C. 3000 U/ml Catalase, 2 μl/well DMSO, 25 μM Ebselen, and 50 μM Ebselen were tested as described above except that the compounds were added 24 hours after M1619 cells were plated. After the addition of antioxidants, the cells were incubated for an additional 48 hours and cell proliferation was quantitated. […]

p65 component of NF-κB = assay: Immunohistochemical localization of p65 in M1619 cells; conditions: 24 hours, catalase 3,000 U/ml, apocynin 150 μg/ml, dicumarol 250 μM
Protocol: The effect of antioxidants on nuclear activation of NF-κB was studied by incubating near confluent (70%) cell cultures with antioxidant treatments for 1-48 hours. Nuclear protein was harvested, and EMSAs were performed using DNA consensus binding sequences, or nuclear translocation of the p65 component of NF-κB was studied by immunoperoxidase staining, as outlined below.
Immunohistochemical Localization of NF-κB. Cells grown on sterile coverslips and treated with catalase 3,000 U/ml, apocynin 150 μg/ml, or DPBS or DMSO vehicles for 24 h were fixed for 20 min on ice with 4% paraformaldehyde in DPBS with protease inhibitors, PI [Sigma protease inhibitor cocktail, 10 μl/ml, containing 4-(2-aminoethyl)benzensulfonyl fluoride (AEBSF), pepstatin A, trans-epoxysuccinyl-L-leucylamindo-(guanidino)butane (E-64), bestatin, leupeptin and aprotinin]. Cells were permeabilized by treating for 2 min with 0.1% NP-40 in DPBS/PI, washed once with cold DPBS and fixed as before for 10 min. Coverslips were incubated in 3% hydrogen peroxide for 30 min to suppress any remaining peroxidase, and washed three times in cold DPBS. The permeabilized and fixed cells were blocked for 2 hours with 2% BSA in DPBS on ice and incubated overnight at 4° C. with 1 μg/ml of anti-p65 antibody (Santa Cruz) diluted in 0.1% BSA/DPBS. Unbound anti-p65 was washed away with 2% BSA/DPBS and bound antibody was stained by incubation with biotinylated goat anti-rabbit immunoglobulin diluted 1:50 in 0.1% BSA/DPBS for 45 min on ice. Excess secondary antibody was washed away by 3 washes with 2% BSA/DPBS on ice. After washing, the cells were incubated with a streptavidin-biotin-peroxidase complex at room temperature for 1 hr, washed again, and incubated in 0.03% wt/vol 3-3′diaminobenzidine with 0.003% vol/vol hydrogen peroxide until a brown reaction product could be seen. Cells were then counterstained with eosin and mounted on glass slides before viewing under light microscopy. […]

M1619 cells = assay: Ferricytochrome c reduction (O2− generation) by M1619 cells; conditions: 160 μM ferricytochrome c; capsaicin 100 μM; dicumarol 250 μM pre-treatment 60 min; other inhibitors as
Protocol: Measurement of Reactive Oxygen Species. Superoxide (O2^−) generation was measured by the technique of superoxide dismutase (SOD) inhibitable reduction of ferricytochrome c, employing a modification allowing absorbance reading with an automatic enzyme immunoassay reader. See Friovich, I. in Handbook of Methods for Oxygen Radical Research (Greenwald, R. A., ed.), pp 121-122, CRC Press, Boca Raton, Fla., 1985; Pick, E. et al. J. Immunol. Methods 46:211-226 (1981). Confluent cells grown on 24-well plates were washed with DPBS, and incubated in 5% CO2/air at 37° C. with 160 μM ferricytochrome c in total volume of 550 μl of sodium bicarbonate-containing Krebs-Heinseleit buffer, or Hanks Balanced Salt Solution (HBSS), with and without copper-zinc SOD (1,000 units/ml). See Nozik-Grayck, et al., Am J. Physiol. 273 (17):L296-L304 (1997). The absorbance of each well was measured at 550 nm initially and 3-24 hours later using an ELx800 UV automated microplate reader (Biotek Instruments, Highland Park, Vt.). Monolayers were then washed with DPBS, and cell protein was measured using the BCA protein assay (Pierce). O2^− generation, normalized to cell protein, was computed from the Beer-Lambert relationship, as the quotient of SOD-inhibitable increase absorbance over time divided by the difference between the molar extinction coefficients for ferricytochrome c and ferrocytochrome c (ΔEM=2.1×10^4 M^−1 cm^−1). See Bashford, in Spectrophotometry & Spectrofluorimetry. A Practical Approach (Harris, D. A., and Bashford, C. L., eds) pp. 1-22, IRL Press, Washington, D.C., 1987; Friovich, I. in Handbook of Methods for Oxygen Radical Research (Greenwald, R. A., ed) pp 121-122, CRC Press, Boca Raton, Fla., 1985. […].
A. Capsaicin inhibits ferricytochrome c reduction. M1619 cells grown on 24-well plates were washed with DPBS, and incubated in 5% CO2/air at 37° C. with 160 μM ferricytochrome c in total volume of 550 μl of HBSS with or without the quinone analog capsaicin (100 μM final concentration) added in 5 μl/ml of ethanol. The absorbance of each well was measured at 550 nm initially and 3 hours later using an ELx800 UV automated microplate reader (Biotek Instruments, Highland Park, Vt.). The results are illustrated in FIG. 8A.
. […]. The results are illustrated in FIG. 9A.

Melanoma M1585 cells = assay: MTT proliferation assay, M1585 melanoma; conditions: Homo sapiens; Ebselen 25 μM; 10% FBS; 48 hours; mean±SE vs FBS+DMSO control; read-out: Percent Growth Inhibition
Protocol: (§2) Measurement of Proliferation in Cell Cultures. […] This assay empirically distinguishes between dead and living cells.
as §1
(§3) Cells stimulated with 10% FBS were plated at a density of 50,000 cells per well. DMSO and antioxidants were added to cell wells at the indicated concentrations. […] Each value represents a mean of at least 4 experiments.

[1] = test system: Adeno-squamous lung carcinoma NCI-H596 cells; assay: MTT proliferation assay, NCI-H596 lung carcinoma; conditions: Homo sapiens, NCI-H596; Ebselen 25 μM; 10% FBS; 48 hours; mean±SE vs FBS+DMSO control; read-out: Percent Growth Inhibition
Protocol: as §2, §1, §3

[2] = test system: LNCaP.FGC prostate adenocarcinoma cells; assay: MTT proliferation assay, LNCaP.FGC prostate adenocarcinoma; conditions: Homo sapiens; Ebselen 25 μM; 10% FBS; 48 hours; mean±SE vs FBS+DMSO control; read-out: Percent Growth Inhibition
Protocol: as §2, §1, §3

[3] = test system: breast carcinoma MDA-MB-453 cells; assay: MTT proliferation assay, MDA-MB-453 breast carcinoma; conditions: Homo sapiens, MDA-MB-453; Ebselen 25 μM; 10% FBS; 72 hours; mean±SE vs FBS+DMSO control; read-out: Percent Growth Inhibition
Protocol: as §2, §1, §3

NF-κB = assay: EMSA of constitutive nuclear NF-κB DNA binding, M1619; conditions: 24 hours, catalase 3,000 U/ml, NAC 20 mM, Ebselen 25 μM, dicumarol 250 μM
From the text: Electrophoretic Mobility Shift Assays (EMSAs). […] J. Respir.

GRO-α = GRO-α ELISA in culture medium; conditions: M1619; dicumarol 24 hours
Protocol: To study the impact of inhibiting NF-κB activation with antioxidants, cellular expression of the autocrine growth factor GRO-α was studied in near confluent monolayers of M1619 cells grown in 24-well plates. Cells were either treated with fresh complete medium or fresh medium containing 25 μM ebselen. After 24 hours, supernatants were harvested, microcentrifuged to remove cellular debris and frozen at −20° C. until GRO-α measurement as outlined below.
Measurement of GRO-α Expression. GRO-α was measured in culture medium from untreated and ebselen treated cells using a commercial ELISA purchased from R&D Systems, Minneapolis, Minn. This assay could not be used to detect GRO-α production by catalase treated cells because of interference in the peroxidase-based ELISA by catalase in the cell supernatant.
[…]. After 24 hours, GRO-α concentration was measured in media.

SMILES: CC(=O)N[C@@H](CS)C(=O)O [N-acetylcysteine]
- Proliferation of M1619 melanoma cells (MTT, A540) (M1619 melanoma cells): reduced proliferation

SMILES: COc1cc(C(C)=O)ccc1O [apocynin, 4′-hydroxy-3′-methoxy-acetophenone]
- Proliferation of M1619 melanoma cells (MTT, A540) (M1619 melanoma cells): significantly reduced proliferation
- anti-p65 staining in nuclei (nuclear translocation of NF-κB) (p65 component of NF-κB): little staining in nuclei

SMILES: Oc1ncnc2[nH]ncc12 [allopurinol]
- Proliferation of M1619 melanoma cells (MTT, A540) (M1619 melanoma cells): Neither cellular reduction of ferricytochrome c nor proliferation were reduced
- ferricytochrome c reduction by M1619 cells (M1619 cells): Neither cellular reduction of ferricytochrome c nor proliferation were reduced

SMILES: CN/C(=N/CCSCc1nc[nH]c1C)NC#N [cimetidine]
- Proliferation of M1619 melanoma cells (MTT, A540) (M1619 melanoma cells): Neither cellular reduction of ferricytochrome c nor proliferation were reduced
- ferricytochrome c reduction by M1619 cells (M1619 cells): Neither cellular reduction of ferricytochrome c nor proliferation were reduced

SMILES: O=c1c2ccccc2[se]n1-c1ccccc1 [Ebselen, 2-phenyl-1,2-benzisoselenazol-3(2H)-one]
- inhibition at 25 µM (Melanoma M1585 cells): 94 ± 2%
- inhibition at 25 µM [1]: 57 ± 2%
- inhibition at 25 µM [2]: 100%
- inhibition at 25 µM [3]: 69 ± 4%
- Proliferation of M1619 melanoma cells (MTT, A540) (M1619 melanoma cells): dramatically reduced
- Proliferation of M1619 melanoma cells, agents added 24 hours after plating (M1619 melanoma cells; catalase 3000 U/ml, Ebselen 25 and 50 μM, further 48 hours): antiproliferative
- constitutive NF-κB DNA binding activity in nuclear protein (NF-κB): substantially reduced

SMILES: N=C(NCCC[C@H](N)C(=O)O)N[N+](=O)[O-] [ω-nitro-L-arginine, Nω-nitro-L-arginine]
- Proliferation of M1619 melanoma cells (MTT, A540) (M1619 melanoma cells): Neither cellular reduction of ferricytochrome c nor proliferation were reduced
- ferricytochrome c reduction by M1619 cells (M1619 cells): Neither cellular reduction of ferricytochrome c nor proliferation were reduced

SMILES: C=C(C)[C@H]1Cc2c(ccc3c2O[C@@H]2COc4cc(OC)c(OC)cc4[C@@H]2C3=O)O1 [retenone]
- Proliferation of M1619 melanoma cells (MTT, A540) (M1619 melanoma cells): Neither cellular reduction of ferricytochrome c nor proliferation were reduced
- ferricytochrome c reduction by M1619 cells (M1619 cells): Neither cellular reduction of ferricytochrome c nor proliferation were reduced

SMILES: COc1ccc2c(c1)c(CC(=O)O)c(C)n2C(=O)c1ccc(Cl)cc1 [indomethacin]
- Proliferation of M1619 melanoma cells (MTT, A540) (M1619 melanoma cells): Neither cellular reduction of ferricytochrome c nor proliferation were reduced
- ferricytochrome c reduction by M1619 cells (M1619 cells): Neither cellular reduction of ferricytochrome c nor proliferation were reduced

SMILES: O=c1oc2ccccc2c(O)c1Cc1c(O)c2ccccc2oc1=O [Dicumarol, 3,3′-methylenebis[4-hydroxy-2H-1-benzopyran-2-one]]
- anti-p65 staining in nuclei (nuclear translocation of NF-κB) (p65 component of NF-κB): little staining in nuclei
- ferricytochrome c reduction by M1619 cells (M1619 cells): significantly decreased
- GRO-α protein expression (GRO-α): dramatic reduction

SMILES: c1ccc2c(c1)[I+]c1ccccc1-2 [diphenylene iodonium chloride]
- Proliferation of M1619 melanoma cells (MTT, A540) (M1619 melanoma cells): significantly reduced proliferation

SMILES: COc1cc(CNC(=O)CCCC/C=C/C(C)C)ccc1O [capsaicin, 8-methyl-N-vanillyl-6-noneamide]
- Proliferation of M1619 melanoma cells (MTT, A540) (M1619 melanoma cells): significantly reduced proliferation
- ferricytochrome c reduction by M1619 cells (M1619 cells): significantly decreased

— patent publication US20070142462A1, “Method of Treating Cancer” (The University of Utah, priority 2000, published 2007)
